Data on 7 compounds can be found in PubChem BioAssay (NCI).

What is called TGI is the concentration at which net growth stops. Low readings indicate more potent growth arrest, high ones less potent growth arrest.

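Values below derive from 48-hour exposures of cells grown in 96-well plates, with endpoints linearly interpolated between the two concentrations bracketing the appropriate inhibition level. TGI: total growth inhibition.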

Test systems include SK-MEL-5 melanoma; HOP-92 NSCLC; ACHN renal; U251 CNS; SK-OV-3 ovarian; 786-0 renal; NCI-H522 lung; OVCAR-4 ovarian; HOP-62 NSCLC; OVCAR-3 ovarian; CCRF-CEM leukemia; HCC-2998 colon; MDA-N; MDA-MB-435; A498 renal; SF-268 CNS; SN12C renal.
Holding throughout (assay): DTP human tumour cell line panel, 48 h

Take `O=C(c1cccs1)N(Cc1cccnc1)C(=S)N(Cc1cccnc1)C(=O)c1cccs1`: the TGI in the assay with SK-MEL-5 melanoma is above 100 µM; in the assay on HOP-92 NSCLC it was above 100 µM; in the assay with ACHN renal, above 100 µM; in the assay on U251 CNS, above 100 µM; in the assay on SK-OV-3 ovarian, above 100 µM; in the assay on 786-0 renal it was 34.3 µM. Also, the TGI in the assay with NCI-H522 lung, in the assay with OVCAR-4 ovarian, in the assay with HOP-62 NSCLC, with OVCAR-3 ovarian, with CCRF-CEM leukemia and in the assay with HCC-2998 colon was above 100 µM throughout. Also, the TGI is above 100 µM with MDA-N; above 100 µM with MDA-MB-435; 97.4 µM in the assay on A498 renal; above 100 µM in the assay on SF-268 CNS; above 100 µM in the assay with SN12C renal.
In the case of `Cc1nnc2n1N=C(c1cc(F)c(Cl)cc1Cl)/C(=C/c1ccc3c(c1)OCO3)S2`, the TGI in the assay on SK-MEL-5 melanoma, with HOP-92 NSCLC, with ACHN renal, with U251 CNS, in the assay with SK-OV-3 ovarian and with 786-0 renal was above 100 µM in each case. In addition, the TGI is 78.2 µM in the assay on NCI-H522 lung; above 100 µM with OVCAR-4 ovarian; above 100 µM with HOP-62 NSCLC; above 100 µM with OVCAR-3 ovarian; above 100 µM in the assay on CCRF-CEM leukemia; above 100 µM with HCC-2998 colon. The TGI with MDA-N, with MDA-MB-435, in the assay with A498 renal, in the assay on SF-268 CNS and with SN12C renal was above 100 µM in each case.
For `O=S(=O)(O)C(Cc1nc2ccccc2[nH]1)S(=O)(=O)OCCC1S(=O)(=O)OCCOS1(=O)=O` (centres undefined), the TGI with SK-MEL-5 melanoma, in the assay with HOP-92 NSCLC, in the assay on ACHN renal, with U251 CNS, in the assay with SK-OV-3 ovarian and in the assay with 786-0 renal was above 100 µM each time. Also, the TGI in the assay with NCI-H522 lung, in the assay with OVCAR-4 ovarian, in the assay on HOP-62 NSCLC, in the assay with OVCAR-3 ovarian, in the assay on CCRF-CEM leukemia and with HCC-2998 colon was above 100 µM in each case. Also, the total growth inhibition concentration (TGI) in the assay on MDA-N, in the assay with MDA-MB-435, in the assay with A498 renal, in the assay with SF-268 CNS and in the assay with SN12C renal was above 100 µM each time.
Regarding `Cc1ccc(C2SCC(=O)N2NC(=O)c2ccncc2)s1` (centres undefined), the TGI with SK-MEL-5 melanoma, in the assay with HOP-92 NSCLC, in the assay with ACHN renal, in the assay on U251 CNS, with SK-OV-3 ovarian and in the assay on 786-0 renal was above 100 µM each time. The TGI with NCI-H522 lung, with OVCAR-4 ovarian, in the assay on HOP-62 NSCLC, in the assay on OVCAR-3 ovarian, in the assay on CCRF-CEM leukemia and in the assay with HCC-2998 colon was above 100 µM throughout. Moreover, the TGI with MDA-N, in the assay with MDA-MB-435, in the assay on A498 renal, in the assay on SF-268 CNS and with SN12C renal was above 100 µM throughout.
In the case of `COc1cccc(Nc2nc(N)nc(N)c2N=O)c1`, the TGI in the assay on SK-MEL-5 melanoma is 39.1 µM; in the assay with HOP-92 NSCLC, 40 µM; in the assay on ACHN renal, 89 µM; in the assay with U251 CNS it was above 100 µM; with SK-OV-3 ovarian it was above 100 µM; in the assay on 786-0 renal, 70.2 µM. Further, the TGI in the assay with NCI-H522 lung was 29.5 µM; with OVCAR-4 ovarian it was 78.5 µM; in the assay with HOP-62 NSCLC, above 100 µM; with OVCAR-3 ovarian it was above 100 µM; with CCRF-CEM leukemia it was 93.4 µM; with HCC-2998 colon it was 34.4 µM. The TGI was above 100 µM in the assay on MDA-N; 39.9 µM in the assay with MDA-MB-435; 47.7 µM with A498 renal; above 100 µM in the assay with SF-268 CNS; above 100 µM in the assay with SN12C renal.
For the compound `O=c1c(=[n+]2ccc(=C([O-])c3ccccc3)cc2)/c(=N/S(=O)(=O)c2ccccc2)c(=O)c2ccccc12`, the TGI with SK-MEL-5 melanoma was found to be 4.87 µM; in the assay on HOP-92 NSCLC it was 21.1 µM; with ACHN renal it was 25.3 µM; with U251 CNS, 16.1 µM; with SK-OV-3 ovarian, 29.2 µM; in the assay with 786-0 renal, 19.5 µM. The TGI in the assay with NCI-H522 lung turned out to be 18.3 µM; with OVCAR-4 ovarian, 25.9 µM; with HOP-62 NSCLC, 22.7 µM; in the assay with OVCAR-3 ovarian, 13.6 µM; with CCRF-CEM leukemia, 6.11 µM; in the assay on HCC-2998 colon it was 23.7 µM. Also, the TGI came to 3.27 µM in the assay on MDA-N; 3.1 µM in the assay with MDA-MB-435; 32 µM in the assay with A498 renal; 25.7 µM in the assay with SF-268 CNS; 19 µM in the assay with SN12C renal.
As for `COc1ccc(C(c2ccc3c(c2)OCO3)N2C(=O)CCC2C(=O)O)cc1` (centres undefined), the TGI in the assay with SK-MEL-5 melanoma, with HOP-92 NSCLC, with ACHN renal, in the assay on U251 CNS, in the assay on SK-OV-3 ovarian and in the assay on 786-0 renal was above 100 µM in each case. For the same compound, the TGI in the assay with NCI-H522 lung, with OVCAR-4 ovarian, with HOP-62 NSCLC, in the assay with OVCAR-3 ovarian, in the assay with CCRF-CEM leukemia and in the assay on HCC-2998 colon was above 100 µM in each case. In addition, the TGI in the assay with MDA-N, in the assay with MDA-MB-435, in the assay on A498 renal, in the assay with SF-268 CNS and in the assay with SN12C renal was above 100 µM in each case.
